Assay results published in patent US9452997B2, “Piperidine and piperazine derivatives as autotaxin inhibitors” (Merck Patent GmbH, priority 2009, dated 2016).

What follows are compounds tested against T1, Recombinant autotaxin (Homo sapiens, UniProt Q13822) (assay: Autotaxin assay (Amplex Red, LPC substrate)). Conditions: recombinant autotaxin, LPC substrate, Amplex Red detection; values given as upper bounds.
T1 construct: made in house; host or cells: Hi5 insect cells (baculovirus)
Format: biochemical
Experimental: Autotaxin activity is measured indirectly by means of Amplex Red Reagent. In this course, Amplex Red is measured as fluorogenic indicator for generated H2O2. Autotaxin converts substrate lysophosphatidylcholine (LPC) to phosphocholine and lysophosphatidylic acid (LPA). After the conversion phosphocholine is reacted with alkaline phosphatase to obtain inorganic phosphate and choline. During the next step choline is oxidized with choline oxidase to yield betaine, whereby H2O2 is generated. H2O2 reacts with Amplex Red Reagent in the presence of peroxidase (Horseradish peroxidase) in an 1:1 stochiometry and yields highly fluorescent resorufin. The generated fluorescence is measured in a reaction-dependent kinetic mode in order to enable subtraction of fluorescence signals of possible other fluorescent compounds that are not part of the reaction from total measured fluorescence.
1.5 μl of a standard solution or of the compounds of the invention are dissolved in 20 mM Hepes pH 7.2 with maximally 7.7% DMSO in individual concentrations. The resulting solution is pre-incubated together with 10 μl (16 ng) of highly purified recombinant autotaxin in a black 384-hole microtiter plate for 30 min at 22° C.
Thereafter, the reaction is started through the addition of 5 μL-a-lysophosphatidyl-choline (LPC), whereby the final concentration of LPC is 75 μM. The mixture is incubated for 90 min. at 37° C. After the incubation Amplex Red Reagent, peroxidase (Horseradish peroxidase) and choline oxidase are added. The fluorescence is immediately measured at a wavelength of 612 nm with an excitation wavelength of 485 nm in a “Tecan Ultra multimode” fluorescence reader. The activity of autotaxin is indirectly calculated via the amount of detected generated H2O2.
For IC50 analysis, ten serial 1:3 dilutions starting at 30 μM for each compound were run in duplicates.
IC50 values were calculated on normalized data. For normalization, control wells were added to each assay plate and the signal of uninhibited control wells was set to 100%, whereas the signal inhibited by 500 μM C14 LPA, (Avanti Polar Lipids, Cat#857120P) was set to 0%. Curves were fitted and IC50 values calculated by the following model using proprietory analysis software: Y=Bottom+(100−Bottom)/(1+10^((Log IC50−X)*HillSlope)) Where X is the logarithm of concentration. Y is the response; Y starts at Bottom and goes to Top with a sigmoid shape. Material
Microtiter plate: PS-Microplate, 384-hole, small volume, black Corning, Cat#3677
Protein: Recombinant autotaxin (baculoviral Hi5 expression)
Substrate: L-a-lysophosphatidyl choline (chicken egg); Avanti Polar Lipids #830071P
Standard: C14 LPA, Avanti Polar Lipids, Cat#857120P
Detection Reagent: Amplex Red Reagent; Invitrogen #A12222; dissolved in 1.923 ml of DMSO peroxidase Type VI-A (horseradish), Sigma #P6782; dissolved in 7.45 ml of test buffer, Choline Oxidase; Sigma #C5896; dissolved in 2.47 ml test buffer
Detection Reagent Mix: 1:100 dilution of Amplex Red Regent in test buffer
Test buffer: 200 mM Tris-HCl, Merck, Cat #1.08219, pH 7.9; 0.1% BSA, lipid free, Roche Cat#775835

| Compound | IC50 [µM] |
| --- | --- |
| O=C(Nc1ccc(-n2cncn2)cc1)C1CC(=O)N(C2CCN(C(=O)OCc3cc(Cl)cc(Cl)c3)CC2)C1 (stereo not drawn) [Compound 54, 4-[2-Oxo-4-(4-[1,2,4]triazol-1-yl-phenylcarbamoyl)-pyrrolidin-1-yl]-piperidine-1-carboxylic acid 3,5-dichloro-benzyl ester] | < 10 |
| O=C(OCc1cc(-c2ccsc2)cs1)N1CCN(C2CCN(C(=O)c3ccc4[nH]nnc4c3)CC2)CC1 [Compound 135, 4-[1-(1H-Benzotriazole-5-carbonyl)-piperidin-4-yl]-piperazine-1-carboxylic acid [3,3′]bithiophenyl-5-ylmethyl ester] | < 1 |
| O=C(OCc1ccc(SC(F)(F)F)cc1)N1CCC(N2CCN(C(=O)c3ccc4[nH]nnc4c3)CC2)CC1 [Compound 86, 4-[4-(1H-Benzotriazole-5-carbonyl)-piperazin-1-yl]-piperidine-1-carboxylic acid 4-trifluoromethylsulfanyl-benzyl ester] | < 1 |
| O=C(OCc1cc(Cl)cc(Cl)c1)N1CCC2(CC1)CCN(C(=O)c1ccc3[nH]nnc3c1)CC2 [Compound 29, 9-(1H-Benzotriazole-5-carbonyl)-3,9-diaza-spiro[5.5]undecane-3-carboxylic acid 3,5-dichloro-benzyl ester] | < 30 |
| Cc1oc(-c2ccccc2)cc1COC(=O)N1CCN(C2CCN(C(=O)c3ccc4[nH]nnc4c3)CC2)CC1 [Compound 173, 4-[1-(1H-Benzotriazole-5-carbonyl)-piperidin-4-yl]-piperazine-1-carboxylic acid 2-methyl-5-phenyl-furan-3-ylmethyl ester] | < 10 |
| O=C(OCc1cc(C(F)(F)F)cc(C(F)(F)F)c1)N1CCN(C2CCN(S(=O)(=O)c3ccc4[nH]c(=O)sc4c3)CC2)CC1 [Compound 153, 4-[1-(2-Oxo-2,3-dihydro-benzothiazole-6-sulfonyl)-piperidin-4-yl]-piperazine-1-carboxylic acid 3,5-bis-trifluoromethyl-benzyl ester] | < 10 |
| O=C(OCc1ccc(Br)cc1)N1CCC(N2CCN(C(=O)c3ccc4[nH]nnc4c3)CC2)CC1 [Compound 80, 4-[4-(1H-Benzotriazole-5-carbonyl)-piperazin-1-yl]-piperidine-1-carboxylic acid 4-bromo-benzyl ester] | < 1 |
| COc1cc(COC(=O)N2CCN(C3CCN(C(=O)c4ccc5[nH]nnc5c4)CC3)CC2)cc(OC)c1OC [Compound 121, 4-[1-(1H-Benzotriazole-5-carbonyl)-piperidin-4-yl]-piperazine-1-carboxylic acid 3,4,5-trimethoxy-benzyl ester] | < 30 |
| O=C(Cc1ccc2[nH]nnc2c1)N1CCC(N2CCN(C(=O)Nc3cc(Cl)cc(Cl)c3)CC2)CC1 [Compound 140, 4-[1-(2-1H-Benzotriazol-5-yl-acetyl)-piperidin-4-yl]-piperazine-1-carboxylic acid (3,5-dichloro-phenyl)-amide] | < 10 |
| O=C(OCc1ccc(OC(F)(F)F)c(F)c1)N1CCN(C2CCN(C(=O)c3ccc4[nH]nnc4c3)CC2)CC1 [Compound 118, 4-[1-(1H-Benzotriazole-5-carbonyl)-piperidin-4-yl]-piperazine-1-carboxylic acid 3-fluoro-4-trifluoromethoxy-benzyl ester] | < 1 |
| O=C(OC1(c2cc(C(F)(F)F)cc(C(F)(F)F)c2)CC1)N1CCN(C2CCN(C(=O)c3ccc4[nH]nnc4c3)CC2)CC1 [Compound 178, 4-[1-(1H-Benzotriazole-5-carbonyl)-piperidin-4-yl]-piperazine-1-carboxylic acid 1-(3,5-bis-trifluoromethyl-phenyl)-cyclopropyl ester] | < 1 |
| O=C(CCc1ccccc1O)N1CCC(N2CCN(C(=O)c3ccccc3-c3cccc(C(F)(F)F)c3)CC2)CC1 [Compound 21, 3-(2-Hydroxy-phenyl)-1-{4-[4-(3′-trifluoromethyl-biphenyl-2-carbonyl)-piperazin-1-yl]-piperidin-1-yl}-propan-1-one] | < 1 |
